Experiments:
[1] = molecular target: Sodium-dependent serotonin transporter (Homo sapiens, UniProt P31645); assay: Displacement of [125I]-IDAM from SERT transfected in pig LLC-PK1 cells by radioligand competition binding assay; assay type: cell-based
[2] = Selectivity ratio of Ki for NET to Ki for DAT
[3] = Selectivity ratio of Ki for SERT to Ki for DAT
[4] = molecular target: Sodium-dependent noradrenaline transporter (Homo sapiens, UniProt P23975); assay: Displacement of [125I]-INXT from NET transfected in pig LLC-PK1 cells by radioligand competition binding assay; assay type: cell-based
[5] = molecular target: Sodium-dependent dopamine transporter (Homo sapiens, UniProt Q01959); assay: Displacement of [125I]-IPT from DAT transfected in pig LLC-PK1 cells by radioligand competition binding assay; assay type: cell-based
Sodium-dependent dopamine transporter, sequence (Q01959 whole entry): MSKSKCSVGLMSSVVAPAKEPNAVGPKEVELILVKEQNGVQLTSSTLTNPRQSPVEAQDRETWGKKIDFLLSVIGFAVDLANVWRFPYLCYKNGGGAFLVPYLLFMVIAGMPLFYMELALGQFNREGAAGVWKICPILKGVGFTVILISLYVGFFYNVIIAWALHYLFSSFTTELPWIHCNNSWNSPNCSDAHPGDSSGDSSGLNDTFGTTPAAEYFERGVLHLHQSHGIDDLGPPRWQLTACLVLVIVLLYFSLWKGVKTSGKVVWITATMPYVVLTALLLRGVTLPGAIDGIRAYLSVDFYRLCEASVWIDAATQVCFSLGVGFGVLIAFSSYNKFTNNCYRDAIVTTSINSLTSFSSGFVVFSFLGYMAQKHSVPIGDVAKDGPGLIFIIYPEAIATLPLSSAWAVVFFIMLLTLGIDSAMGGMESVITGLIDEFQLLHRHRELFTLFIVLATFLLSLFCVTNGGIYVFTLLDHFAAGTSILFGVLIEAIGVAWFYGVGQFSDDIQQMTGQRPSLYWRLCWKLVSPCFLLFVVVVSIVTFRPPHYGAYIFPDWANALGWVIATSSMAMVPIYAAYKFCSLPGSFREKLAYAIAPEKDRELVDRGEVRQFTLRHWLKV

Sodium-dependent serotonin transporter, sequence (P31645 whole entry): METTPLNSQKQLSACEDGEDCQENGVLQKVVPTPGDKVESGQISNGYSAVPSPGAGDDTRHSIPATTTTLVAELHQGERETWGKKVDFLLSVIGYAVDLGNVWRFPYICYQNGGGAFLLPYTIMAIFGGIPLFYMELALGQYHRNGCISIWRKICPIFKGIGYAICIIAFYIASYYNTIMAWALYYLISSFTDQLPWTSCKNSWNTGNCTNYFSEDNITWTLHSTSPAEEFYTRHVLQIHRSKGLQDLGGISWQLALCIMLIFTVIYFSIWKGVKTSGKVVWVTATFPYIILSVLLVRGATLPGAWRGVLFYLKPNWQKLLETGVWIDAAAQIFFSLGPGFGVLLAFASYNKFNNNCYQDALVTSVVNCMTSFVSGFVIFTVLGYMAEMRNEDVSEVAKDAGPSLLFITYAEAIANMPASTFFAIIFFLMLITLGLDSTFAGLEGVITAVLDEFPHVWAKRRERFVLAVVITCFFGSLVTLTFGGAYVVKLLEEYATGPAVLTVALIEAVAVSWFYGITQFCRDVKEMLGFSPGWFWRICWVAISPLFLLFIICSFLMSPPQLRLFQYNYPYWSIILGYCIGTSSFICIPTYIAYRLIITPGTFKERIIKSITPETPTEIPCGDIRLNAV
Sodium-dependent noradrenaline transporter, sequence (P23975 whole entry): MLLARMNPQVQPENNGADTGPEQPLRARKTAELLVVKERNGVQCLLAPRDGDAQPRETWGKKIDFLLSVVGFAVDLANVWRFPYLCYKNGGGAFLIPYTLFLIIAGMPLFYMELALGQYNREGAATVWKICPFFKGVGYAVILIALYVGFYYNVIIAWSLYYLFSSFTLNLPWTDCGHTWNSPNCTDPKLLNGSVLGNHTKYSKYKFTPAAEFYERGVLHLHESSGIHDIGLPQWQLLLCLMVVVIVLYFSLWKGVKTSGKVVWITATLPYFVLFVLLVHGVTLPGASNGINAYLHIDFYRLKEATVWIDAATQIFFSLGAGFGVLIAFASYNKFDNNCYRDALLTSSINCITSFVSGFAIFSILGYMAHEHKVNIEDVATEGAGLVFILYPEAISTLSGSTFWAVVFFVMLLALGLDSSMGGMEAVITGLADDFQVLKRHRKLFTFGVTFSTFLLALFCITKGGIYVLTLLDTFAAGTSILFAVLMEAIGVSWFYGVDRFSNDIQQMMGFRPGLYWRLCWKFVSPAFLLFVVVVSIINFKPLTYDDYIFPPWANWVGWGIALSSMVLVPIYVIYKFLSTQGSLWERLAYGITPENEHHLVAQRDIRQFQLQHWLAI

Row | SMILES | Ki [1] [nM] | Ratio Ki [2] | Ratio Ki [3] | Ki [4] [nM] | Ki [5] [nM]
1 | CN1C2CCC1[C@@H](C(=O)Nc1ccc(Br)nc1)[C@@H](c1ccc(Cl)cc1)C2 (stereo partly specified) | 15300 | 153 | 144 | 16200 | 106
2 | CN1C2CCC1[C@@H](CNc1ccc(Br)nc1)[C@@H](c1ccc(Cl)cc1)C2 (stereo partly specified) | 10.5 | 2.7 | 0.6 | 49.1 | 17.9
3 | COC(=O)[C@@H]1C2CCC(C[C@@H]1c1ccc(Br)cc1)N2C (stereo partly specified) | – | – | – | – | 3.5
4 | CN1C2CCC1[C@@H](C(=O)Nc1cccc(F)n1)[C@@H](c1ccc(Cl)cc1)C2 (stereo partly specified) | 29100 | 133 | 229 | 16900 | 127
5 | CN1C2CCC1[C@@H](CNc1cccc(Br)n1)[C@@H](c1ccc(Cl)cc1)C2 (stereo partly specified) | 7.4 | 5.2 | 1.3 | 29.1 | 5.6
6 | CN1C2CCC1[C@@H](CNc1ccnc(Br)c1)[C@@H](c1ccc(Cl)cc1)C2 (stereo partly specified) | 11 | 3.5 | 1.4 | 27.7 | 7.9

— ChEMBL document CHEMBL1914398, “Synthesis and evaluation of novel N-fluoropyridyl derivatives of tropane as potential PET imaging agents for the dopamine transporter” (Bioorg Med Chem Lett, 2011)
